Assays:
KCB cells = conditions: 12-14 hours exposure
Method: The inventive cells were cryopreserved in a solution consisting of 10% DMSO and 10% FBS (fetal-bovine-serum) in MEM (minimum-essential-medium) at −80° C. The cells were thawed, washed with MEM and transferred to a 96 micro-well plate. In order to avoid evaporation of medium and consequent bias in MN frequency, the outer wells were left empty and the micro-well plate was sealed with duct tape. The inner wells were filled with cells in medium. The medium employed was composed of 86% MEM, 10% FBS, 1% non-essential-amino acids, 1% streptomycin (5 mg/ml in PBS—phosphate-buffered saline), 1% penicillin (3.125 mg/ml in PBS) and 1% amphotericin (250 μg/ml in deionized water). The cells were cultivated at 26° C. until they formed a moderately dense monolayer. The time until optimal monolayer density was achieved varied from two to five days.
Two untreated (i.e. not exposed to genotoxic compounds) columns served as internal (negative) controls of each plate.
It is possible, but not absolutely necessary, to replace the exposure medium by a recovery medium before the scoring. The scoring of micronuclei shall take place earliest 2 hours and latest 12 hours after the end of the exposure period.
In the basic test, a minimum of two pictures per well, corresponding to at least 24 pictures per concentration or control, were taken under a fluorescence microscope with an objective magnification of 40×. Normal cell nuclei, MN and fragmented nuclei in each picture were counted visually with aid of the “Cell Counter” plugin from the public domain image processing software “ImageJ”. Finally, the frequencies of MN per concentration were calculated.

[1] = test system: carp (Cyprinus carpio) erythrocytes; conditions: fish injected with 0.4 mg colchicine/kg body weight; background 2%; cited from earlier work
human skin fibroblasts = conditions: colchicine 20 ng/mL (around 0.05 μM), 72 hours; background 0.2-0.9%; cited from earlier work
human lymphocytes = conditions: colchicine 0.06 μM, 24 hours; controls 1%; cited from earlier work

| Compound | concentrations at which a cytotoxic threshold may have been achieved (MN frequency diminishing or stabilizing) (KCB cells) | MN frequency [1] | MN frequency (human skin fibroblasts) | MN frequency (human lymphocytes) | maximal MN frequency (KCB cells; colchicine at 0.375 μM) [%] | maximal frequency of fragmented nuclei (KCB cells; colchicine at 0.5 μM) [%] |
| --- | --- | --- | --- | --- | --- | --- |
| O=[N+]([O-])c1cc[n+]([O-])c2ccccc12 [4NQO, 4-Nitroquinoline 1-oxide] | ≥ 600 nM | – | – | – | – | – |
| COc1cc2c(c(OC)c1OC)-c1ccc(OC)c(=O)cc1[C@@H](NC(C)=O)CC2 [colchicine] | higher than 0.188 μM | around 10% | up to 4.7% | around 15.2% | 1.77 | 6.85 |

— US20190113503A1 (priority 2016, published 2019)
